Source: patent US4505929A, “Sulfur-substituted diphenyl ethers having antiviral activity” (The Dow Chemical Company, priority 1982, dated 1985)
In brackets after ≈: the same amount, converted by molar mass.

Legend:
[1] = test system: Coxsackie A21 virus (Cox A21); test: Tissue culture antiviral test (HeLa cells), Cox A21; format: cell-based; settings: 48 and 72 hours post-treatment, read-out: Lowest concentration necessary to cause a 50 percent reduction in cytopathic effect, Cox A21
Method: (§1) Monolayered HeLa cells in 16 millimeter (mm) tissue culture dishes were treated with 1 ml of culture medium (Eagles medium supplemented with fetal calf serum) containing subject compound at an appropriate concentration or containing no compound at all. Culture media such as those described herein are more fully described in standard texts, as for example, Kuchler's Biochemical Methods in Cell Culture and Virology, Dowden, Hutchinson and Ross, Inc., Stroudsberg, PA (1977). Following treatment, cells were challenged with 0.05 ml of rhinovirus type 1A (RV-1A), rhinovirus type 2 (RV-2) or Coxsackie A21 virus (Cox A21) in culture medium. Some of the compounds were also tested against rhinovirus type 5 (RV-5), rhinovirus type 8 (RV-8) or rhinovirus type 64 (RV-64). Cell controls received no viruses.
(§2) ^xx Lowest concentration of the compound (μg/ml) necessary to caus
(§3) a 50 percent reduction in cytopathic effect.

rhinovirus type 68 = test: Inhibition of cytopathic effect in Wl-38 cells, type 68; format: cell-based; settings: Enterovirus, WI-38, 25 μg/ml, Wl-38 human embryonic lung cells, read-out: inhibition grade
Method: (§4) Solutions of 4-(4-(methylsulfonyl)phenoxy)-1,2-dichlorobenzene were prepared by dissolving 5 milligrams of the compound in 0.1 ml dimethyl sulfoxide and incubating at 56° C. for at least 15 minutes. This solution was added to 0.9 ml of warmed (56° C.) maintenance medium (49% Eagles, 49% medium 199, 2% fetal calf serum and antibiotics), and the resulting 1.0 ml was then added to 9 ml of warmed (56° C.) maintenance medium. From this solution the final concentrations of 100, 50, 25, or 12.5 μg/ml were made up with maintenance medium.
(§5) Triplicate cell culture tubes (Wl-38 human embryonic lung cell culture tubes) were fed with 1 ml of medium containing the compound at specified concentrations and inoculated with 3-300 TCID50 (3-300 times the tissue culture infective dose 50, i.e., the dose required to infect 50% of the cell cultures tested. Simultaneous viral titrations were performed. The tissue cultures were supplemented with fresh medium when necessary (around 3-4 days) until viral titrations were completed.
(§6) The cell culture tubes were examined daily for cytopathic effect. […] Comparisons were made at that time with the percentage of cell sheet destruction in tubes containing virus compound mixtures. Observed differences of 75% or more were graded "+", 74-50% as "±", and less than 50% as "-" inhibition.

rhinovirus type 56 = test: Inhibition of cytopathic effect in Wl-38 cells, type 56; format: cell-based; settings: Enterovirus, WI-38, 25 μg/ml, Wl-38 human embryonic lung cells, read-out: inhibition grade
Method: as §4, §5, §6

rhinovirus type 13 = test: Inhibition of cytopathic effect in Wl-38 cells, type 13; format: cell-based; settings: Enterovirus, WI-38, 25 μg/ml, Wl-38 human embryonic lung cells, read-out: inhibition grade
Method: as §4, §5, §6

rhinovirus type 58 = test: Inhibition of cytopathic effect in Wl-38 cells, type 58; format: cell-based; settings: Enterovirus, WI-38, 25 μg/ml, Wl-38 human embryonic lung cells, read-out: inhibition grade
Method: as §4, §5, §6

Acute toxicity in rats = settings: rat, in vivo
rhinovirus type 60 = test: Inhibition of cytopathic effect in Wl-38 cells, type 60; format: cell-based; settings: Enterovirus, WI-38, 25 μg/ml, Wl-38 human embryonic lung cells, read-out: inhibition grade
Method: as §4, §5, §6

rhinovirus type 29 = test: Inhibition of cytopathic effect in Wl-38 cells, type 29; format: cell-based; settings: Enterovirus, WI-38, 25 μg/ml, Wl-38 human embryonic lung cells, read-out: inhibition grade
Method: as §4, §5, §6

rhinovirus type 2 (RV-2) = test: Tissue culture antiviral test (HeLa cells), RV-2; format: cell-based; settings: Enterovirus, 48 and 72 hours post-treatment, read-out: Lowest concentration necessary to cause a 50 percent reduction in cytopathic effect, RV-2
Method: as §1, §2, §3

rhinovirus type 8 = test: Inhibition of cytopathic effect in Wl-38 cells, type 8; format: cell-based; settings: Enterovirus, WI-38, 25 μg/ml, Wl-38 human embryonic lung cells, read-out: inhibition grade
Method: as §4, §5, §6

rhinovirus type 4 = test: Inhibition of cytopathic effect in Wl-38 cells, type 4; format: cell-based; settings: Enterovirus, WI-38, 25 μg/ml, Wl-38 human embryonic lung cells, read-out: inhibition grade
Method: as §4, §5, §6

rhinovirus type 59 = test: Inhibition of cytopathic effect in Wl-38 cells, type 59; format: cell-based; settings: Enterovirus, WI-38, 25 μg/ml, Wl-38 human embryonic lung cells, read-out: inhibition grade
Method: as §4, §5, §6

Picornaviruses = test: Antiviral effectiveness against picornaviruses, overall; format: cell-based
Method: as §1
Solutions of 4-(4-(methylsulfonyl)phenoxy)-1,2-dichlorobenzene were prepared by dissolving 5 milligrams of the compound in 0.1 ml dimethyl sulfoxide and incubating at 56° C. for at least 15 minutes. This solution was added to 0.9 ml of warmed (56° C.) maintenance medium (49% Eagles, 49% medium 199, 2% fetal calf serum and antibiotics), and the resulting 1.0 ml was then added to 9 ml of warmed (56° C.) maintenance medium. From this solution the final concentrations of 100, 50, 25, or 12.5 μg/ml were made up with maintenance medium. […]

[2] = test system: rhinovirus type 64 (RV-64); test: Tissue culture antiviral test (HeLa cells), RV-64; format: cell-based; settings: Enterovirus, 48 and 72 hours post-treatment, read-out: Lowest concentration necessary to cause a 50 percent reduction in cytopathic effect, RV-64
Method: as §1, §2, §3

Coxsackie A21 virus = test: Continuous Oral Feeding test in Coxsackie A21 infected mice; format: in vivo; settings: in diet
Method: Some of the compounds were also tested in animals utilizing the following procedure, hereinafter referred to as the "Continuous Oral Feeding" test. Coxsackie A21 virus grown on HeLa cells was administered at a concentration that produces 80 to 100% deaths in mice weighing 10 to 11 grams within 10 days, when the mice are injected (IP) with 0.2 ml of virus preparation. Mice were placed on diets containing test compound dispersed in plain commercially available rodent mash chow at a concentration of 0.05% (weight percent) on day 0. On day 1 the mice were challenged with the virus preparation, 0.2 ml/mouse, (IP). Deaths in both control and experimental groups were recorded for the 10 days and the results analyzed by a chi-square (X^2) test. Chi-square values greater than 3.84 indicate the compound is active (95% confidence level).
^xxx Percent (by weight) of test compound in the diet fed to test

[3] = test system: rhinovirus type 1A (RV-1A); test: Tissue culture antiviral test (HeLa cells), RV-1A; format: cell-based; settings: Enterovirus, 48 and 72 hours post-treatment, read-out: Lowest concentration necessary to cause a 50 percent reduction in cytopathic effect, RV-1A
Method: as §1, §2, §3

rhinovirus type 19 = test: Inhibition of cytopathic effect in Wl-38 cells, type 19; format: cell-based; settings: Enterovirus, WI-38, 25 μg/ml, Wl-38 human embryonic lung cells, read-out: inhibition grade
Method: as §4, §5, §6

[4] = Acute oral toxicity in beagle dogs; settings: dog, in vivo
rhinovirus type 10 = test: Inhibition of cytopathic effect in Wl-38 cells, type 10; format: cell-based; settings: Enterovirus, WI-38, 25 μg/ml, Wl-38 human embryonic lung cells, read-out: inhibition grade
Method: as §4, §5, §6

rhinovirus type 17 = test: Inhibition of cytopathic effect in Wl-38 cells, type 17; format: cell-based; settings: Enterovirus, WI-38, 25 μg/ml, Wl-38 human embryonic lung cells, read-out: inhibition grade
Method: as §4, §5, §6

[5] = test system: Hank's (untyped) rhinovirus; test: Inhibition of cytopathic effect in Wl-38 cells, Hank's (untyped); format: cell-based; settings: Enterovirus, WI-38, 25 μg/ml, Wl-38 human embryonic lung cells, read-out: inhibition grade
Method: as §4, §5, §6

rhinovirus type 64 = test: Inhibition of cytopathic effect in Wl-38 cells, type 64; format: cell-based; settings: Enterovirus, WI-38, 25 μg/ml, Wl-38 human embryonic lung cells, read-out: inhibition grade
Method: as §4, §5, §6

[6] = Cytotoxicity to HeLa cells in tissue culture testing; format: cell-based; settings: human, G.I. = growth inhibition: at the concentration shown the compound inhibited growth of the tissue culture, read-out: Cytotoxicity (G.I.)
Method: as §1
^x Cytotoxicity figures represent the concentration of the compound,
micrograms/milliliter (μg/ml) found to be toxic to the cell.
means "approximately "; "<<" "considerably less than " and "G.I." means

rhinovirus type 74 = test: Inhibition of cytopathic effect in Wl-38 cells, type 74; format: cell-based; settings: Enterovirus, WI-38, 25 μg/ml, Wl-38 human embryonic lung cells, read-out: inhibition grade
Method: as §4, §5, §6

rhinovirus type 81 = test: Inhibition of cytopathic effect in Wl-38 cells, type 81; format: cell-based; settings: Enterovirus, WI-38, 25 μg/ml, Wl-38 human embryonic lung cells, read-out: inhibition grade
Method: as §4, §5, §6

rhinovirus type 8 (RV-8) = test: Tissue culture antiviral test (HeLa cells), RV-8; format: cell-based; settings: Enterovirus, 48 and 72 hours post-treatment, read-out: Lowest concentration necessary to cause a 50 percent reduction in cytopathic effect, RV-8
Method: as §1, §2, §3

rhinovirus type 6 = test: Inhibition of cytopathic effect in Wl-38 cells, type 6; format: cell-based; settings: Enterovirus, WI-38, 25 μg/ml, Wl-38 human embryonic lung cells, read-out: inhibition grade
Method: as §4, §5, §6

rhinovirus type 75 = test: Inhibition of cytopathic effect in Wl-38 cells, type 75; format: cell-based; settings: Enterovirus, WI-38, 25 μg/ml, Wl-38 human embryonic lung cells, read-out: inhibition grade
Method: as §4, §5, §6

Cox A21 = test: Single Oral Dose test in Cox A21 infected mice; format: in vivo, Swiss male mice
Method: In addition, some of the compounds were tested in animals utilizing the following procedure, hereinafter referred to as the "Single Oral Dose" test. Swiss male mice, 10-12 grams in weight were challenged intraperitoneally (IP) with 0.2 ml of a normally lethal dose, i.e. a virus dose sufficient to cause .congruent.80-100% mortality in infected animals within 10 days of challenge of Cox A21, in phosphate buffered saline containing 1% heat inactivated fetal calf serum. Three hours later mice were treated orally (P.O.) with 0.2 ml of compound suspended in 0.5% hydroxypropyl methylcellulose (Methocel) or with 0.2 ml of 0.5% Methocel containing no compound. […] Mice were observed daily for 7-10 days post-challenge and deaths recorded. A modified Mantel-Haenzel combined chi-square procedure was used to determine significant difference between virus control and treated groups. Chi-square values greater than 3.84 are considered significant (95% confidence level) in this test.

rhinovirus type 39 = test: Inhibition of cytopathic effect in Wl-38 cells, type 39; format: cell-based; settings: Enterovirus, WI-38, 25 μg/ml, Wl-38 human embryonic lung cells, read-out: inhibition grade
Method: as §4, §5, §6

rhinovirus type 21 = test: Inhibition of cytopathic effect in Wl-38 cells, type 21; format: cell-based; settings: Enterovirus, WI-38, 25 μg/ml, Wl-38 human embryonic lung cells, read-out: inhibition grade
Method: as §4, §5, §6

With `CS(=O)(=O)c1ccc(Oc2ccc(Cl)c(Cl)c2)cc1` [Example 1, 4-(4-(Methylsulfonyl)phenoxy)-1,2-dichlorobenzene] the EC50 [1] was 2.5 µg/mL (≈ 7.88 µM), the inhibition at 25 µg/mL (rhinovirus type 68) was 50 to 74% and the inhibition at 25 µg/mL (rhinovirus type 56) was no less than 75%. It also gave an inhibition at 25 µg/mL (rhinovirus type 13) of no less than 75%, an inhibition at 25 µg/mL (rhinovirus type 58) of no less than 75% and an LD50 (Acute toxicity in rats; ip, intraperitoneal, read-out: acute toxicity, intraperitoneal administration) greater than 1000 mg/kg. The LD50 (Acute toxicity in rats; oral, read-out: acute oral toxicity) was greater than 2000 mg/kg, the inhibition at 25 µg/mL (rhinovirus type 60) was no less than 75% and the inhibition at 25 µg/mL (rhinovirus type 29) was no less than 75%. It also gave an EC50 (rhinovirus type 2 (RV-2)) of 0.25 µg/mL (≈ 0.788 µM), an inhibition at 25 µg/mL (rhinovirus type 8) of less than 50% and an inhibition at 25 µg/mL (rhinovirus type 4) of no less than 75%. The inhibition at 25 µg/mL (rhinovirus type 59) was no less than 75%, the “effectiveness against Picornaviruses” value (Picornaviruses) was “particularly effective against Picornaviruses” and the EC50 [2] was 0.25 µg/mL (≈ 0.788 µM). For the same molecule, the “antiviral activity in Continuous Oral Feeding test” value (Coxsackie A21 virus) was “exhibited antiviral activity”, the EC50 [3] was 0.25 µg/mL (≈ 0.788 µM) and the inhibition at 25 µg/mL (rhinovirus type 19) was no less than 75%. The LD50 [4] was greater than 2000 mg/kg, the inhibition at 25 µg/mL (rhinovirus type 10) was no less than 75% and the inhibition at 25 µg/mL (rhinovirus type 17) was no less than 75%. The inhibition at 25 µg/mL [5] was no less than 75%, the inhibition at 25 µg/mL (rhinovirus type 64) was no less than 75% and the MCC [6] was 50 to 100 µg/mL. It also gave an inhibition at 25 µg/mL (rhinovirus type 74) of no less than 75%, an inhibition at 25 µg/mL (rhinovirus type 81) of no less than 75% and an EC50 (rhinovirus type 8 (RV-8)) of roughly 50 µg/mL (≈ 158 µM). The inhibition at 25 µg/mL (rhinovirus type 6) was no less than 75%, the inhibition at 25 µg/mL (rhinovirus type 75) was less than 50% and the “antiviral activity in Single Oral Dose test” value (Cox A21) was “exhibited antiviral activity”. It also gave an inhibition at 25 µg/mL (rhinovirus type 39) of no less than 75% and an inhibition at 25 µg/mL (rhinovirus type 21) of no less than 75%.
